As usually defined, the TGI is the concentration at which net growth stops. Higher therefore signals lower sensitivity of the cells. As a reminder, the GI50 is the concentration at which growth is held to half of that of the control.

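In this assay, cells in 96-well plates receive the compound at five concentrations for 48 hours. Endpoints are linearly interpolated between the surrounding concentrations. GI50 = concentration required for 50% inhibition of growth. TGI is the concentration that stops growth completely.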

In PubChem BioAssay (NCI) one finds TGI and GI50 data, which are given here for 14 molecules.

What all share (experiment): DTP human tumour cell line panel, 48 h
Assay [1] concerns HCT-15 colon.
For assay [2], the system named is HCT-116 colon.
The subject of assay [3] is NCI-H460 lung.
The test system of assay [4] is CCRF-CEM leukemia.
Assay [5] concerns HOP-62 NSCLC.
The test system of assay [6] is SR leukemia.
Assay [7] has as its system OVCAR-5 ovarian.
Assay [8] has as its system NCI-H226 lung.
Assay [9] relates to RXF 393 renal.
The test system of assay [10] is HL-60(TB) leukemia.

As for `COc1ccc(CC(CO)NC(=O)OCc2ccccc2)cc1Oc1ccc(CC(CO)NC(=O)OCc2ccccc2)cc1` (centres undefined), the TGI in assay [1] was greater than 100 µM; in assay [2], 32.3 µM; in [3], 66.6 µM; in [4], 66.6 µM; in [5] it was 31.8 µM; in [6], greater than 100 µM. Further, the TGI in [7] amounted to 30.9 µM.
For the molecule `COP(=O)(O)/C=C/C(NC(=O)C(Cl)(Cl)Cl)c1ccccc1` (centres undefined), the TGI in assay [1], in [2], in assay [8], in [3], in assay [9] and in assay [5] was greater than 100 µM each time. For the same molecule, the TGI in [10] and in [7] was greater than 100 µM each time.
For the molecule `C/C(N=Nc1nc2ccccc2s1)=C1/C=CC=CN1O`, the TGI in [1], in assay [2], in assay [8], in assay [3], in [4] and in assay [9] was greater than 100 µM in each case. Further, the TGI in [5] is greater than 100 µM; in [6], greater than 100 µM; in [7], 5.95 µM.
For `C/C(=C\c1ccccc1)C(=O)CCN1CCOCC1`, the TGI in [1] was 32.6 µM; in assay [2] it was greater than 56.4 µM; in assay [8] it was greater than 65 µM; in [3] it was greater than 100 µM; in [4] it was greater than 67.2 µM; in assay [9] it was 35.2 µM. Moreover, the TGI in [5] is greater than 100 µM; in [10], greater than 74.3 µM; in [7], 33.4 µM.
As for `CN(C)C(CN)CC1=C(CC(CN)N(C)C)CCC1` (centres undefined), the TGI in assay [1], in assay [2], in assay [8], in [3], in assay [4] and in [9] was greater than 100 µM throughout. For the same molecule, the TGI in [5], in assay [10] and in [7] was greater than 100 µM in each case.
Regarding `C=C(C)CCC(=O)[C@](C)(O)[C@H]1[C@H](O)C[C@@]2(C)[C@@H]3CCc4c(cc(OC5OC(CO)C(O)C(O)C5O)c(O)c4C)C3(C)C(=O)C[C@]12C` (some centres undefined), the concentration for total growth inhibition (TGI) in assay [1], in assay [2], in assay [8], in [3], in [4] and in [9] was greater than 100 µM each time. Besides, the TGI in assay [5], in assay [6] and in assay [7] was greater than 100 µM each time.
With `CCOC(=O)C1=C(C(C)=O)CSC(c2ccccc2)=N1`, the total growth inhibition concentration (TGI) in [1], in assay [2], in [8], in [3], in assay [4] and in assay [9] was greater than 100 µM throughout. Besides, the TGI in assay [10] and in [7] was greater than 100 µM in each case.
As for `CCOC(=O)c1[nH]cc(C)c1-c1ccn(-c2ccccc2)c1`, the TGI in assay [1] was greater than 100 µM; in assay [2], greater than 100 µM; in [8], greater than 100 µM; in [3], greater than 100 µM; in assay [4], 79.3 µM; in assay [9] it was greater than 100 µM. The TGI was greater than 100 µM in assay [5], 72.4 µM in [6] and greater than 100 µM in assay [7].
As for `CCCCCCCCCC[C@H](O)[C@H]1CC[C@H]([C@H]2CC[C@H]([C@H](O)CC[C@H](O)CCCCCCC[C@@H](O)CC3=C[C@H](C)OC3=O)O2)O1`, the TGI in [1] is greater than 100 µM; in [2] it was greater than 100 µM; in assay [8], greater than 100 µM; in assay [3], greater than 100 µM; in assay [4] it was greater than 100 µM; in assay [9], 88 µM. The molecule further yielded a TGI in assay [7] greater than 100 µM. In addition, the GI50 in assay [8] is greater than 100 µM; in assay [4] it was 3.12 µM; in assay [7], greater than 100 µM.
Regarding `COc1ccc2c(c1)O/C(=C\c1cccc(OCC(=O)Nc3nc4c(s3)CCCC4)c1)C2=O`, the GI50 is 18.1 µM in [1]; greater than 43.8 µM in assay [2]; greater than 100 µM in assay [8]; greater than 100 µM in assay [3]; 2.07 µM in assay [4]; 2.11 µM in assay [9]. In addition, the GI50 in assay [5] is greater than 34 µM; in assay [10], 3.32 µM; in assay [7], greater than 40.6 µM. The TGI in assay [1] is greater than 100 µM; in assay [2] it was greater than 100 µM; in assay [8] it was greater than 100 µM; in [3], greater than 100 µM; in assay [4] it was 7.79 µM; in assay [9], 4.48 µM. Moreover, the values for the concentration for total growth inhibition (TGI) in assay [5], in assay [10] and in assay [7] were greater than 55.4 µM, 18.5 µM and greater than 78.8 µM, respectively.
`COCOc1ccc(OC)cc1`: the TGI in assay [1], in assay [2], in [8], in assay [3], in assay [4] and in [9] was greater than 100 µM each time. Besides, the TGI in assay [5], in assay [10] and in assay [7] was greater than 100 µM in each case.
`N#Cc1c(-c2ccccc2)/c(=C\Nc2ccc(Cl)cc2)c(=O)n2c1nc1ccccc12`: the TGI was greater than 100 µM in assay [1]; 19.6 µM in assay [2]; greater than 100 µM in assay [8]; greater than 100 µM in [3]; 84.9 µM in [4]; greater than 100 µM in [9]. Moreover, the TGI in assay [5] and in assay [7] was greater than 100 µM each time.
In the case of `CC(=O)NS(=O)(=O)c1ccc(NC(=O)c2c3ccccc3nc3ccccc23)cc1`, the concentration for total growth inhibition (TGI) in assay [1], in assay [2], in assay [3], in assay [4], in assay [5] and in [6] was greater than 100 µM each time. The molecule further had a TGI in assay [7] greater than 100 µM.
With `COc1cc(/C=C/C(=O)O)ccc1C(=O)O/C=C/c1ccccc1`, the TGI in assay [1], in [2], in assay [8], in [3], in [4] and in assay [9] was greater than 100 µM in each case. Moreover, the concentration for total growth inhibition (TGI) in [5], in [10] and in assay [7] was greater than 100 µM in each case.
